The conditions of data set [1]: human.
For data set [2] the following is noted: human. The source holds these as a separate data set.
For data set [3] the following is noted: 4 °C.
For data set [4] the following is noted: human, in vivo.

The results in this text go back to publication PMC9182130 (Molecules, 2022).

In the case of `O=C(NN1C(=O)[C@@H]2[C@@H]3C=C[C@@H]([C@H]4C[C@@H]34)[C@@H]2C1=O)c1ccc(C(F)(F)F)cc1` [ST-246, tecovirimat], in data set [1], the “time of stability at −20 °C” value is given as not below 90 days and the “time without degradation at −20 °C” value is recorded as “at least 3 months”. Moreover, the “% of nominal concentrations after three consecutive freeze-thaw cycles” value in data set [2] is on record as 96–115%. The “time of stability in autosampler” value in data set [3] was 48 h. In data set [4] (po), the “maximal ST-246 concentration in real-world plasma samples” value is reported as not above 1000 ng/mL.

As for `O=C(NNC(=O)C1C2C=CC(C3CC23)C1C(=O)O)c1ccc(C(F)(F)F)cc1` (stereo not shown) [NIOCH-14], in data set [4], the “half-life compared with ST-246” value was “longer” and the “maximum concentration in plasma compared with ST-246” value is “lower”. The “dose of ST-246 equivalent to 600 mg of NIOCH-14 according to the area under the curve” value in data set [4] (po) is given as approximately 250 mg. Also, in data set [4] (po, 600 mg), the AUCo-inf stood at 8864 ± 4117 and the Cl/F was determined as 80 ± 37 L/h.
